Molecular target: T1, RANTES/MIP-1α chemokine receptor (CCR1) in THP-1 cell membranes (Homo sapiens, UniProt P32246)
T1 construct: Membranes were prepared from THP-1 cells (ATCC #TIB202); host or cells: THP-1 cells (membrane preparation)
T1 sequence (P32246 1-355): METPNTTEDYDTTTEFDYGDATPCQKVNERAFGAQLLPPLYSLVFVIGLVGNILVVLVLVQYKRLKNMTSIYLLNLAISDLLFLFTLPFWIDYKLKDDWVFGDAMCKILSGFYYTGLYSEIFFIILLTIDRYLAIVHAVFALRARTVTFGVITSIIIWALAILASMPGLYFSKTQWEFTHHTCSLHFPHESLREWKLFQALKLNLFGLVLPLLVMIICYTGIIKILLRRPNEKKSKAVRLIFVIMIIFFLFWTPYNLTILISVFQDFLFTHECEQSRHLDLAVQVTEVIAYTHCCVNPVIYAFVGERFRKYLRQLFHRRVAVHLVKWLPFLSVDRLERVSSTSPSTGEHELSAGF
Assay: Receptor binding assay: 125I-RANTES or 125I-MIP-1α binding to THP-1 cell membranes
Conditions: for IC50: inhibitor concentration required for 50% inhibition of specific binding, 125I-RANTES or 125I-MIP-1α as ligand, THP-1 cell membranes, read-out: IC50

Molecule | relative activity of resolved enantiomers (enantiomers resolved from the racemate on ChiralPak AD, test not named) | IC50
CC(C)(O)c1ccc2c(c1)C(=CCCN1CCC(O)(c3ccc(Cl)cc3)C(C)(CO)C1)c1cccnc1CO2 (single isomer, unassigned) [Example 483-2, 4-(4-Chloro-phenyl)-3-hydroxymethyl-1-{3-[7-(hydroxyl-1-methyl-ethyl)-11H-10-oxa-1-aza-dibenzo[a,d]cyclohepten-5-ylidene]-propyl}-3-methyl-piperidine-4-ol] | less active enantiomer | < 10 µM
COC(=O)C1CN(CCC=C2c3cc(C(C)(C)O)ccc3OCc3ncccc32)CCN1c1ccc(Cl)cc1 (stereo not shown) [Example 546, 1-(4-Chloro-phenyl)-4-{3-[7-(1-hydroxy-1-methyl-ethyl)-11H-10-oxa-1-aza-dibenzo[a,d]cyclohepten-5-ylidene]-propyl}-piperazine-2-carboxylic acid methyl ester] | – | < 1 µM
4-(4-Chlorophenyl)-1-[3-(5,11-dihydro-7-ethoxy [1]benzoxepino[2,3-b]pyridin-5-ylidene)propyl]piperidin-4-ol [Example 46] | – | < 1 µM
1-[3-(7-(2-Carbamoyl)ethyl-5,11-dihydro[1]benzoxepino[2,3-b]pyridin-5-ylidene)propyl]-4-(4-chlorophenyl)-piperidin-4-ol [Example 218] | – | < 1 µM
OC1(c2ccc(Cl)cc2)CCN(CCC=C2c3ccccc3C=Cc3ccccc32)CC1 [Example 21, 4-(4-Chlorophenyl)-1-[3-(5H-dibenzo[a,d]cycloheptene-5-ylidene)propyl]piperidin-4-ol] | – | < 1 µM
4-(4-Chlorophenyl)-1-[3-(5,11-dihydro-7-propargyloxy[1]benzoxepino [2,3-b]pyridin-5-ylidene)propyl]piperidin-4-ol [Example 173] | – | < 1 µM
CC(C)(O)c1ccc2c(c1)C(=CCCN1CCN(c3ccc(Cl)c(Cl)c3)CC1)c1cccnc1CO2 [Example 538, 2-(5-{3-[4-(3,4-Dichloro-phenyl)-piperazin-1-yl]-propylidene}-5,11-dihydro-10-oxa-1-aza-dibenzo[a,d]cyclohepten-7-yl)-propan-2-ol] | – | < 10 µM
4-(4-Chlorophenyl)-1-[3-(7-cyanomethyloxy-5,11-dihydro[1]benzoxepino[2,3-b]pyridin-5-ylidene)propyl]piperidin-4-ol [Example 49] | – | < 1 µM
CC(C)(O)c1ccc2c(c1)C(=CCCN1CCC(Oc3ccccc3Cl)CC1)c1cccnc1CO2 [Example 495, 2-(5-{3-[4-(2-Chloro-phenoxy)-piperidin-1-yl]-propylidene}-5,11-dihydro-10-oxa-1-aza-dibenzo[a,d]cyclohepten-7-yl)-propan-2-ol] | – | < 1 µM
CC(C)(O)c1ccc2c(c1)C(=CCCN1CCC(O)(c3ccc(Cl)cc3)C(N=[N+]=[N-])C1)c1cccnc1CO2 (stereo not shown) [Example 476, 3-Azido-4-(4-chloro-phenyl)-1-{3-[7-(1-hydroxy-1-methyl-ethyl)-11H-10-oxa-1-aza-dibenzo[a,d]cyclohepten-5-ylidene}-propyl}-piperidin-4-ol] | – | < 1 µM
4-(4-Chlorophenyl)-1-[3-(5,11-dihydro-7-hydroxy [1]benzoxepino[2,3-b]pyridin-5-ylidene)propyl]piperidin-4-ol [Example 44] | – | < 1 µM
O=C1Nc2ccccc2C(=CCCN2CCC(O)(c3ccc(Cl)cc3)CC2)c2ccccc21 [Example 39, 4-(4-Chlorophenyl)-1-[3-(6,11-dihydro-6-oxo-5H-dibenz[b,e]azepin-11-ylidene)propyl]piperidin-4-ol] | – | < 10 µM
CC(C)(Oc1ccc2c(c1)C(=CCCN1CCC(O)(c3ccc(Cl)cc3)CC1)c1cccnc1CO2)C(N)=O [Example 211, 1-[3-(7-(1-Carbamoyl-1-methyl)ethyloxy-5,11-dihydro [1]benzoxepino[2,3-b]pyridin-5-ylidene)propyl]-4-(4-chlorophenyl)piperidin-4-ol] | – | < 1 µM
4-(5-Chloropyridin-2-yl)-1-[3-(5,11-dihydro-7-methoxy[1]benzoxepino[2,3-b]pyridin-5-ylidene)propyl]piperidin-4-ol [Example 83] | – | < 1000 µM
CC(C)(C)OC(=O)CN1C(=O)c2ccccc2C(=CCCN2CCC(O)(c3ccc(Cl)cc3)CC2)c2ccccc21 [Example 43, 1-[3-(5-tert-Butoxycarbonymethyl-6,11-dihydro-6-oxo-5H-dibenz[b,e]azepin-11-ylidene)propyl]-4-(4-chlorophenyl)-piperidin-4-ol] | – | < 10 µM
4-(7-Chloro-1,2-benzisoxazol-3-yl)-1-[3-(5,11-dihydro-7-methoxy[1]benzoxepino[2,3-b]pyridin-5-ylidene)propyl]piperidine [Example 185] | – | < 1000 µM
CC(C)NC(=O)N(Cc1ccc(Cl)cc1)C1CCN(CCC=C2c3cc(C(C)(C)O)ccc3OCc3ncccc32)C1 (stereo not shown) [Example 567, 1-(4-Chloro-benzyl)-1-(1-{3-[7-(1-hydroxy-1-methyl-ethyl)-11H-10-oxa-1-aza-dibenzo[a,d]cyclohepten-5-ylidene]-propyl}-pyrrolidin-3-yl)-3-isopropyl-urea] | – | < 1 µM
1-[3-(8-Bromo-5,11-dihydro[1]benzoxepino[2,3-b]pyridin-5-ylidene)propyl]-4-(4-chlorophenyl)piperidin-4-ol [Example 54] | – | < 1 µM
4-(4-Chlorophenyl)-1-[3-(5,11-dihydro[1]benzothiepino[2,3-b]pyridin-5-ylidene)propyl]piperidin-4-ol [Example 111] | – | < 1 µM
4-(4-Chlorophenyl)-1-[3-(5,11-dihydro-7-(1-piperidino)methyl[1]benzoxepino[2,3-b]pyridin-5-ylidene)propyl]piperidin-4-ol [Example 277] | – | < 1 µM
1-[3-(8-Bromo-5,11-dihydro[1]benzoxepino[2,3-b]pyridin-5-ylidene)propyl]-4-(4-chlorophenyl)piperidine [Example 160] | – | < 1 µM
CCN(Cc1ccc(Cl)cc1)CC1CCN(CCC=C2c3cc(C(C)(C)O)ccc3OCc3ncccc32)C1 (stereo in doubt) [Example 526, (R)-2-{5-[3-(3-{[(4-Chloro-benzyl)-ethyl-amino]-methyl}-pyrrolidin-1-yl)-propylidene]5,11-dihydro-10-oxa-1-aza-dibenzo[a,d]cyclohepten-7-yl}-propan-2-ol] | – | < 1 µM
4-(4-Chlorophenyl)-1-[3-(5,11-dihydro-7-methylaminocarbonylmethyloxy[1]benzoxepino[2,3-b]pyridin-5-ylidene)propyl]piperidin-4-ol [Example 182] | – | < 1 µM
CCN(CCC=C1c2cc(C(C)(C)O)ccc2OCc2ncccc21)CCN(CC)c1ccc(Cl)cc1 [Example 543, 2-{5-[3-({2-[(4-Chloro-phenyl)-ethyl-amino]-ethyl}-ethyl-amino)-propylidene]-5,11-dihydro-10-oxa-1-aza-dibenzo[a,d]cyclohepten-7-yl}-propan-2-ol] | – | < 10 µM
CC(C)(Oc1ccc2c(c1)C(=CCC[N+]1(C)CCC(O)(c3ccc(Cl)cc3)CC1)c1cccnc1CO2)C(N)=O (stereo not shown) [Example 262, 1-[3-(7-(1-Carbamoyl-1-methyl)ethyloxy-5,11-dihydro[1]benzoxepino[2,3-b]pyridin-5-ylidene)propyl]-4-(4-chlorophenyl)-4-hydroxy-1-methylpiperidinium iodide] | – | < 1 µM
CC(C)(O)c1ccc2c(c1)C(=CCCN1CC[C@@H](N(Cc3ccc(Cl)cc3)C(N)=O)C1)c1cccnc1CO2 [Example 533, (R)-1-(4-Chloro-benzyl)-1-(1-{3-[7-(1-hydroxy-1-methyl-ethyl)-11H-10-oxa-1-aza-dibenzo[a,d]cyclohepten-5-ylidene]-propyl}-pyrrolidin-3-yl)urea] | – | < 10 µM
CN(C)CCOc1ccc2c(c1)C(=CCCN1CCC(O)(c3ccc(Cl)cc3)CC1)c1cccnc1CO2 [Example 131] | – | < 1 µM
CC(C)(O)c1ccc2c(c1)C(=CCCN1CCC(O)(c3ccc(Cl)cc3)CC1)c1cccnc1CO2 [Example 242, 4-(4-Chlorophenyl)-1-[3-(5,11-dihydro-7-(1-hydroxy-1-methyl)ethyl[1]benzoxepino[2,3-b]pyridin-5-ylidene)propyl]piperidin-4-ol] | – | < 1 µM
CC(=O)N(Cc1ccc(Cl)cc1)C1CCN(CCC=C2c3cc(C(C)(C)O)ccc3OCc3ncccc32)C1 (stereo not shown) [Example 561, N-(4-Chloro-benzyl)-N-(1-{3-[7-(1-hydroxy-1-methyl-ethyl)-11H-10-oxa-1-aza-dibenzo[a,d]cyclohepten-5-ylidene]-propyl}-pyrrolidin-3-yl)-acetamide] | – | < 10 µM
CC(C)(O)c1ccc2c(c1)C(=CCCN1CCC(O)(c3ccc(Cl)c([N+](=O)[O-])c3)CC1)c1cccnc1CO2 [Example 492, 4-(4-Chloro-3-nitro-phenyl)-1-{3-[7-(1-hydroxy-1-methyl-ethyl)-11H-10-oxa-1-aza-dibenzo[a,d]cyclohepten-5-ylidene]-propyl}-piperidin-4-ol] | – | < 10 µM

Reference: US8653096B2, “Chemokine receptor antagonists and methods of use thereof” (Millennium Pharmaceuticals, Inc., priority 2001, dated 2014)
